Read-outs that look alike come from different tables or passages of the source.
Experiments:
h-GABA-A α5β3γ2 [1] = molecular target: T1, h-GABA-A α5β3γ2 (Homo sapiens (Human), UniProt P18507+P31644); experiment: Two-electrode voltage clamp electrophysiology in Xenopus oocytes expressing GABAA receptors, modulation of GABA EC20 current; assay type: cell-based
In short: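 Values are % modulation of an EC20 GABA response, derived point by point from the ratio of compound-exposed versus control current traces (extremum taken, 100×(fold−1)). Recordings used oocytes injected with human α5, β3, γ2 mRNA, clamped at −80 mV at room temperature, at least 3 oocytes each.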

h-GABA-A α5β3γ2 [2] = molecular target: T1, h-GABA-A α5β3γ2; experiment: [3H]flumazenil competition binding assay, membranes of HEK293 cells expressing human GABAA receptors
In short: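 Membranes were prepared from HEK293 cells with transient human α5β3γ2 expression and assayed in Krebs-tris, pH 7.5. Bound radioactivity measured on filters by liquid scintillation.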

[3] = % modulation of GABA EC20 = 100*(Fold increase−1), Xenopus oocytes
[4] = Xenopus oocytes, GABA EC20, test compound at approx. 30 fold its Ki
[5] = displacement of [3H]flumazenil 0.5 nM, HEK293 cells expressing human receptors, mean of two determinations, read-out: Ki h-GABA-A α5β3γ2
[6] = reference compounds, % modulation of GABA EC20
[7] = reference compounds, GABAA α5β3γ2 overexpressing oocytes, GABA EC20
[8] = reference compounds, GABAA receptor α5β3γ2, read-out: Ki α5-human

Row | Compound | Efficacy (GABA) % (h-GABA-A α5β3γ2 [1]; [3]) [%] | Fold increase h-GABA-A α5β3γ2 oocyte (h-GABA-A α5β3γ2 [1]; [4]) | Ki (h-GABA-A α5β3γ2 [2]; [5]) [nM] | Efficacy (GABA) % (h-GABA-A α5β3γ2 [1]; [6]) | Fold increase h-GABA-A α5β3γ2 oocyte (h-GABA-A α5β3γ2 [1]; [7]) | Ki (h-GABA-A α5β3γ2 [2]; [8]) [nM]
1 | Cc1ccc(-c2noc(C)c2COc2ccc(C(=O)N[C@H]3C[C@@H](OC4CC4)C3)nn2)cn1 [Example 176, cis-N-(3-cyclopropoxycyclobutyl)-6-((5-methyl-3-(6-methylpyridin-3-yl)isoxazol-4-yl)methoxy)pyridazine-3-carboxamide] | 64 | 1.64 | 12.7 | – | – | –
2 | CC1(NC(=O)c2ccc(OCc3c(-c4ccc(Cl)nc4)noc3C3CC3)nn2)COC1 [Example 177] | 109 | 2.09 | 39.7 | – | – | –
3 | O=C(NC1CC2(COC2)C1)c1ccc(OCc2c(-c3ccc(Cl)nc3)noc2C2CC2)nn1 [Example 178, 6-((3-(6-chloropyridin-3-yl)-5-cyclopropylisoxazol-4-yl)methoxy)-N-(2-oxaspiro[3.3]heptan-6-yl)pyridazine-3-carboxamide] | 73 | 1.73 | 42.9 | – | – | –
4 | Cc1ccc(-c2noc(C3CC3)c2COc2ccc(C(=O)NC3(C)COC3)nn2)cn1 [Example 180] | 173 | 2.73 | 32.6 | – | – | –
5 | Cc1ccc(-c2noc(C3CC3)c2COc2ccc(C(=O)NC3CC4(COC4)C3)nn2)cn1 [Example 181, 6-((5-cyclopropyl-3-(6-methylpyridin-3-yl)isoxazol-4-yl)methoxy)-N-(2-oxaspiro[3.3]heptan-6-yl)pyridazine-3-carboxamide] | 147 | 2.47 | 68 | – | – | –
6 | Cc1ccc(-c2noc(C3CC3)c2COc2ccc(C(=O)N[C@H]3CCOC3)nn2)cn1 [Example 182] | 141 | 2.41 | 59.6 | – | – | –
7 | Cc1ccc(-c2noc(C3CC3)c2COc2ccc(C(=O)NC3CCOCC3)nn2)cn1 [Example 183, 6-((5-cyclopropyl-3-(6-methylpyridin-3-yl)isoxazol-4-yl)methoxy)-N-(tetrahydropyran-4-yl)pyridazine-3-carboxamide] | 213 | 3.13 | 56.7 | – | – | –
8 | Cc1ccc(-c2noc(CF)c2COc2ccc(C(=O)NC3(C(F)(F)F)CC3)nn2)cn1 [Example 184, 6-((5-(fluoromethyl)-3-(6-methylpyridin-3-yl)isoxazol-4-yl)methoxy)-N-(1-(trifluoromethyl)cyclopropyl)pyridazine-3-carboxamide] | 96 | 1.96 | 51.2 | – | – | –
9 | Cc1onc(-c2ccc(C(F)(F)F)nc2)c1COc1ccc(C(=O)NC2CCOCC2)nn1 [Example 185, 6-((5-methyl-3-(6-(trifluoromethyl)pyridin-3-yl)isoxazol-4-yl)methoxy)-N-(tetrahydropyran-4-yl)pyridazine-3-carboxamide] | 124 | 2.24 | 70.7 | – | – | –
10 | Cc1ccc(-c2noc(C)c2COc2ccc(C(=O)N[C@H]3CC4CCC3O4)nn2)cn1 (stereo partly drawn) [Example 186, N-((2S)-7-oxabicyclo[2.2.1]heptan-2-yl)-6-((5-methyl-3-(6-methylpyridin-3-yl)isoxazol-4-yl)methoxy)pyridazine-3-carboxamide] | 72 | 1.72 | 16.6 | – | – | –
11 | CCO[C@@H]1CC[C@@H](NC(=O)c2ccc(OCc3c(-c4ccc(C)nc4)noc3C)nn2)C1 [Example 190, N-((1R,3R)-3-ethoxycyclopentyl)-6-((5-methyl-3-(6-methylpyridin-3-yl)isoxazol-4-yl)methoxy)pyridazine-3-carboxamide] | 63 | 1.63 | 12.7 | – | – | –
12 | Cc1ccc(-c2noc(C)c2COc2ccc(C(=O)N[C@@H]3CC[C@@H](OCC(F)F)C3)nn2)cn1 [Example 191, N-((1R,3R)-3-(2,2-difluoroethoxy)cyclopentyl)-6-((5-methyl-3-(6-methylpyridin-3-yl)isoxazol-4-yl)methoxy)pyridazine-3-carboxamide] | 60 | 1.6 | 11.2 | – | – | –
13 | Cc1ccc(-c2noc(CF)c2COc2ccc(C(=O)NC3CCOCC3)nn2)nn1 [Example 192, 6-((5-(fluoromethyl)-3-(6-methylpyridazin-3-yl)isoxazol-4-yl)methoxy)-N-(tetrahydropyran-4-yl)pyridazine-3-carboxamide] | 56 | 1.56 | 3 | – | – | –
14 | Cc1ccc(-c2noc(C)c2COc2ccc(C(=O)NC3CCOCC3)nn2)nn1 [Example 193, 6-((5-methyl-3-(6-methylpyridazin-3-yl)isoxazol-4-yl)methoxy)-N-(tetrahydropyran-4-yl)pyridazine-3-carboxamide] | 64 | 1.64 | 1 | – | – | –
15 | Cc1ccc(-c2noc(C)c2COc2ccc(C(=O)N[C@H]3CC[C@H](OCC(F)F)CC3)nn2)cn1 [Example 194, trans-N-(4-(2,2-difluoroethoxy)cyclohexyl)-6-((5-methyl-3-(6-methylpyridin-3-yl)-1,2-oxazol-4-yl)methoxy)pyridazine-3-carboxamide] | 84 | 1.84 | 13.3 | – | – | –
16 | CCO[C@H]1CC[C@H](NC(=O)c2ccc(OCc3c(-c4ccc(C)nc4)noc3C)nn2)CC1 [Example 195, N-(4-ethoxycyclohexyl)-6-((5-methyl-3-(6-methylpyridin-3-yl)-1,2-oxazol-4-yl)methoxy)pyridazine-3-carboxamide] | 78 | 1.78 | 17.3 | – | – | –
17 | Cc1onc(-c2cccnc2)c1COc1ccc(C(=O)NC2CCOCC2)nn1 [RE-A, 6-((5-methyl-3-(3-pyridyl)isoxazol-4-yl)methoxy)-N-tetrahydropyran-4-yl-pyridazine-3-carboxamide, reference compound] | – | – | – | −3% | 0.97 | 65
18 | Cc1onc(-c2ccc(Cl)cn2)c1COc1ccc(C(=O)NC2CCOCC2)nn1 [RE-B, 6-((3-(5-chloro-2-pyridyl)-5-methyl-isoxazol-4-yl)methoxy)-N-tetrahydropyran-4-yl-pyridazine-3-carboxamide, reference compound] | – | – | – | +3% | 1.03 | 0.4
19 | Cc1onc(-c2ccccn2)c1COc1ccc(C(=O)NC2CCOCC2)nn1 [RO-094, reference compound] | – | – | – | −18% | 0.82 | 2.9
20 | Cc1onc(-c2cccnc2)c1COc1ccc(C(=O)NC2CCOCC2)cn1 [RO-159, reference compound] | – | – | – | −12% | 0.88 | 28
21 | Cc1ccc(-c2noc(C)c2COc2ccc(C(=O)NC3CCOCC3)cn2)cc1 [RO-251, reference compound] | – | – | – | −18% | 0.82 | 1
22 | Cc1onc(-c2ccccn2)c1COc1ccc(C(=O)NC2CCOCC2)cn1 [RO-272, reference compound] | – | – | – | −32% | 0.68 | 1
23 | Cc1onc(-c2ccc(Cl)cn2)c1COc1ccc(C(=O)NC2CCOCC2)cn1 [RO-301, reference compound] | – | – | – | −18% | 0.82 | 0.2

— patent US20240279218A1 (Hoffmann-La Roche Inc., priority 2016, published 2024)
